We go through 34 compounds from patent US6750228B1, “Aromatic sulfone hydroxamic acid metalloprotease inhibitor” (priority 1997, dated 2004).

pIC50: −log10 of the molar value. Bounds are passed on as bounds.

As a reminder, the pIC50 is the negative decadic logarithm of the IC50, by convention in mol/L.

Test in all cases: biochemical
One assay addresses T1, MMP-13 (Homo sapiens, UniProt P45452).
T1 construct: made in house; host or cells: baculovirus / insect cells
To be noted: recombinant human MMP-13, MCA peptide substrate 4 μM, pH 7.5, room temperature; read-out: MMP-13 IC50. The procedure, abridged: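 Assay buffer 100 mM Tris-HCl, 100 mM NaCl, 10 mM CaCl2, pH 7.5. Activated MMP + inhibitor, 5 min RT; then methoxycoumarin peptide substrate, 4 μM final. Readout fluorescence; IC50 calculated.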

For another assay, the target named is T2, MMP-1 (Homo sapiens, UniProt P03956).
T2 construct: made in house; host or cells: transfected HT-1080 cells (provided by Dr. Harold Welgus, Washington University)
T2 sequence (P03956 100-469): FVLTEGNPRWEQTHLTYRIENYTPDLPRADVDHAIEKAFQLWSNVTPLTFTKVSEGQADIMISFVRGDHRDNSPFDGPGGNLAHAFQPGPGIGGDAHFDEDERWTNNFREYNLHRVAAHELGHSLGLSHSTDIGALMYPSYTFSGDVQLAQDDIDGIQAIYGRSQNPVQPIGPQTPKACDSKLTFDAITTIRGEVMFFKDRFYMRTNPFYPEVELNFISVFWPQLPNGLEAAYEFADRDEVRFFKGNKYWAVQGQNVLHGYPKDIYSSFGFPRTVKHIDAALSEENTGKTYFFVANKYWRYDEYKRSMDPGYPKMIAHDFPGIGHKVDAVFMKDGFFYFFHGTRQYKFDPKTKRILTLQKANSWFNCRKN
The conditions noted are these: recombinant human MMP-1, MCA peptide substrate 4 μM, pH 7.5, room temperature; read-out: MMP-1 IC50. In a few lines:
(§1)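 APMA- or trypsin-activated enzymes were preincubated with inhibitor for 5 min at room temperature, then the fluorogenic substrate MCA-Pro-Leu-Gly-Leu-Dpa-Ala-Arg-NH2 was added to a final 4 μM.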

For the next assay, the target named is T3, MMP-2 (Homo sapiens, UniProt P08253).
T3 construct: made in house; provided by Dr. Gregory Goldberg, Washington University
T3 sequence (P08253 110-660): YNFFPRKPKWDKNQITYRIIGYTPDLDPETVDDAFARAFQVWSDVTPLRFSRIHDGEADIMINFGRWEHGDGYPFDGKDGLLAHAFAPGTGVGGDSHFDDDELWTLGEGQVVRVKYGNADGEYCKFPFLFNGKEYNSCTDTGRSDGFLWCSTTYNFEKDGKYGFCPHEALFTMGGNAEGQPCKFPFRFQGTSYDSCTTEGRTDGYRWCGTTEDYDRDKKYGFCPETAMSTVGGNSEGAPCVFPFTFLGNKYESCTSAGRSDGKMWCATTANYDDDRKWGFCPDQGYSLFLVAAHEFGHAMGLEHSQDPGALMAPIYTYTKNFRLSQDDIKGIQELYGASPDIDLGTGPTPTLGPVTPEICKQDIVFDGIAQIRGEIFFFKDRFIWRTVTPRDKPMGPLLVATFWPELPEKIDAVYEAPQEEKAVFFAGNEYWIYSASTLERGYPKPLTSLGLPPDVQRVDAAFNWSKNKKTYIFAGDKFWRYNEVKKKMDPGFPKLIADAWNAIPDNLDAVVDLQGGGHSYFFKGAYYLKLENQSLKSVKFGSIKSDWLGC
To be noted: recombinant human MMP-2, MCA peptide substrate 4 μM, pH 7.5, room temperature; read-out: MMP-2 IC50. In a few lines:
as §1

For `O=C(NO)C1(S(=O)(=O)c2ccc(OC3CCCC(OCc4ccccc4Cl)C3)cc2)CCOCC1` (stereo not drawn) [Example 666], the pIC50 at MMP-13 was 7.32; at MMP-1, less than 5.00; on MMP-2, 6.48.
The matching figures for `O=C(NO)C1(S(=O)(=O)c2ccc(OC3CCC(OCc4cccc(Cl)c4)C3)cc2)CCOCC1` (stereo not drawn) [Example 668]: 8.70, less than 5.00 and 7.59.
For `O=C(NO)C1(S(=O)(=O)c2ccc(OC3CCC(OCc4cccc(Cl)c4)C3)cc2)CCOCC1` (stereo not drawn) [Example 669] the same measures were 8.37, less than 5.00 and 7.64.
The matching figures for `Cc1cccc(S(=O)(=O)N2CCN(c3ccc(S(=O)(=O)C4(C(=O)NO)CCOCC4)cc3)CC2)c1` [Example 671]: 8.22, less than 5.00 and 6.89.
For the compound `O=C(NO)C1(S(=O)(=O)c2ccc(N3CCN(S(=O)(=O)c4ccccc4OC(F)(F)F)CC3)cc2)CCOCC1` [Example 673], the figures for the pIC50 at MMP-13, on MMP-1 and on MMP-2 were 7.83, less than 5.00 and 6.34, respectively.
For `Cc1ccc(S(=O)(=O)N2CCN(c3ccc(S(=O)(=O)C4(C(=O)NO)CCOCC4)cc3)CC2)cc1` [Example 674] the same measures were 8.10, less than 5.00 and 6.96.
With `O=C(NO)C1(S(=O)(=O)c2ccc(N3CCN(S(=O)(=O)c4ccccc4C(F)(F)F)CC3)cc2)CCOCC1` [Example 675], the pIC50 was 7.89 on MMP-13, 5.22 on MMP-1 and 7.06 at MMP-2.
Consider `O=C(NO)C1(S(=O)(=O)c2ccc(N3CCN(S(=O)(=O)c4cccc(C(F)(F)F)c4)CC3)cc2)CCOCC1` [Example 676], for which the pIC50 at MMP-13 was 8.11; on MMP-1, less than 5.00; on MMP-2, 7.05.
For `O=C(NO)C1(S(=O)(=O)c2ccc(N3CCN(S(=O)(=O)c4ccc(C(F)(F)F)cc4)CC3)cc2)CCOCC1` [Example 677] the same measures were 8.15, less than 5.00 and 7.46.
In the case of `COc1ccc(S(=O)(=O)N2CCN(c3ccc(S(=O)(=O)C4(C(=O)NO)CCOCC4)cc3)CC2)cc1` [Example 678], the pIC50 on MMP-13 was 8.30; on MMP-1 it was less than 5.00; on MMP-2, 7.30.
For `COc1ccc(S(=O)(=O)N2CCN(c3ccc(S(=O)(=O)C4(C(=O)NO)CCOCC4)cc3)CC2)cc1OC` [Example 683] the same measures were 7.95, less than 5.00 and 6.54.
For `O=C(NO)C1(S(=O)(=O)c2ccc(N3CCN(S(=O)(=O)c4cccs4)CC3)cc2)CCOCC1` [Example 685] the same measures were 8.52, less than 5.00 and 7.46.
For `O=C(NO)C1(S(=O)(=O)c2ccc(OC3CCC(OCc4ccccc4Cl)C3)cc2)CCOCC1` (stereo not drawn) [Example 688], the pIC50 on MMP-13 was 7.75; on MMP-1, less than 5.00; on MMP-2, 6.96.
The matching figures for `N#Cc1ccc(S(=O)(=O)N2CCN(c3ccc(S(=O)(=O)C4(C(=O)NO)CCOCC4)cc3)CC2)cc1` [Example 690]: 8.14, less than 5.00 and 7.38.
Take `O=C(NO)C1(S(=O)(=O)c2ccc(N3CCN(S(=O)(=O)c4cccc5nsnc45)CC3)cc2)CCOCC1` [Example 691]: the pIC50 was 8.00 on MMP-13, less than 5.00 on MMP-1 and 6.89 at MMP-2.
Consider `O=C(NO)C1(S(=O)(=O)c2ccc(N3CCC4CCCCC4C3)cc2)CCOCC1` (stereo not drawn) [Example 692], for which the pIC50 on MMP-13 was 8.00; on MMP-1, less than 5.00; on MMP-2, 7.64.
The matching figures for `CC(C)(C)OC1CCN(c2ccc(S(=O)(=O)C3(C(=O)NO)CCOCC3)cc2)CC1` [Example 693]: 6.68, less than 5.00 and 5.72.
The matching figures for `COc1cccc(COC2CCC(Oc3ccc(S(=O)(=O)C4(C(=O)NO)CCOCC4)cc3)C2)c1` (stereo not drawn) [Example 694]: 8.51, less than 5.00 and 7.63.
`O=C(NO)C1(S(=O)(=O)c2ccc(N3CCN(c4ccc(OC(F)(F)F)cc4)CC3)cc2)CCOCC1` [Example 695]: the values for the pIC50 on MMP-13, on MMP-1 and on MMP-2 were 8.70, less than 5.00 and 7.64, respectively.
Consider `COc1cccc(S(=O)(=O)N2CCN(c3ccc(S(=O)(=O)C4(C(=O)NO)CCOCC4)cc3)CC2)c1` [Example 696], for which the pIC50 is 8.00 on MMP-13, less than 5.00 on MMP-1 and 6.85 at MMP-2.
For `O=C(NO)C1(S(=O)(=O)c2ccc(N3CCCN(S(=O)(=O)c4ccc(C(F)(F)F)cc4)CC3)cc2)CCOCC1` [Example 697] the same measures were 7.74, less than 5.00 and 5.82.
For `COc1ccc(S(=O)(=O)N2CCCN(c3ccc(S(=O)(=O)C4(C(=O)NO)CCOCC4)cc3)CC2)cc1` [Example 698] the same measures were 7.77, less than 5.00 and 6.15.
For `O=C(NO)C1(S(=O)(=O)c2ccc(N3CCCN(S(=O)(=O)c4ccc(OC(F)(F)F)cc4)CC3)cc2)CCOCC1` [Example 699] the same measures were 7.30, less than 5.00 and 6.34.
As to `Cc1cccc(COC2CCC(Oc3ccc(S(=O)(=O)C4(C(=O)NO)CCOCC4)cc3)C2)c1` (stereo not drawn) [Example 706], the pIC50 at MMP-13 is 8.37; at MMP-1, less than 5.00; on MMP-2 it was 7.40.
For `O=C(NO)C1(S(=O)(=O)c2ccc(N3CCC(SCc4ccccc4)CC3)cc2)CCOCC1` [Example 707] the same measures were 8.64, less than 5.00 and 8.05.
On to `O=C(NO)C1(S(=O)(=O)c2ccc(N3CCCN(c4ccc(OC(F)(F)F)cc4)CC3)cc2)CCOCC1` [Example 708], for which the results for the pIC50 on MMP-13, at MMP-1 and at MMP-2 were 6.94, less than 5.00 and 5.52, respectively.
For `O=C(NO)C1(S(=O)(=O)c2ccc(OC3CCC(OCc4cccc(OC(F)(F)F)c4)C3)cc2)CCOCC1` (stereo not drawn) [Example 714] the same measures were 7.54, less than 5.00 and 6.38.
As to `O=C(NO)C1(S(=O)(=O)c2ccc(N3CCC(Cc4ccccc4)CC3)cc2)CCOCC1` [Example 720], the pIC50 at MMP-13 was 8.35; on MMP-1, less than 5.00; at MMP-2, 7.43.
Turning to `O=C(c1cc(F)cc(F)c1)C1CCN(c2ccc(S(=O)(=O)C3(C(=O)NO)CCOCC3)cc2)CC1` [Example 724], the pIC50 at MMP-13 was 7.54; at MMP-1 it was less than 5.00; at MMP-2, 6.52.
The matching figures for `O=C(c1cccc(OC(F)(F)F)c1)C1CCN(c2ccc(S(=O)(=O)C3(C(=O)NO)CCOCC3)cc2)CC1` [Example 725]: 7.60, less than 5.00 and 6.68.
For `O=C(c1ccc(OC(F)(F)F)cc1)C1CCN(c2ccc(S(=O)(=O)C3(C(=O)NO)CCOCC3)cc2)CC1` [Example 726] the same measures were 7.80, less than 5.00 and 6.60.
For `O=C(c1cccc(C(F)(F)F)c1)C1CCN(c2ccc(S(=O)(=O)C3(C(=O)NO)CCOCC3)cc2)CC1` [Example 727] the same measures were 7.46, less than 5.00 and 6.62.
As for `O=C(c1cccc(F)c1)C1CCN(c2ccc(S(=O)(=O)C3(C(=O)NO)CCOCC3)cc2)CC1` [Example 728], the values for the pIC50 at MMP-13, on MMP-1 and at MMP-2 were 8.03, less than 5.00 and 6.97, respectively.
For `O=C(c1ccc(C(F)(F)F)cc1)C1CCN(c2ccc(S(=O)(=O)C3(C(=O)NO)CCOCC3)cc2)CC1` [Example 729], the pIC50 on MMP-13 is 7.83; on MMP-1, less than 5.00; on MMP-2 it was 6.62.
